From PubChem BioAssay (NCI)
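Step 1: Grow cells in 96-well plates. Step 2: Expose to compound for 48 hours at 5 concentrations. Step 3: Interpolate endpoints linearly; if unreached, use highest concentration. TGI: concentration producing complete growth inhibition.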

Experiments:
Experiment in all cases: NCI anticancer screen, dose series, 48 h
UACC-257 melanoma = tested on: UACC-257 melanoma
SF-295 CNS = tested on: SF-295 CNS
M19-MEL melanoma = tested on: M19-MEL melanoma
UO-31 renal = tested on: UO-31 renal
K-562 leukemia = tested on: K-562 leukemia
KM12 colon = tested on: KM12 colon
MOLT-4 leukemia = tested on: MOLT-4 leukemia
786-0 renal = tested on: 786-0 renal
HCT-15 colon = tested on: HCT-15 colon
KM20L2 colon = tested on: KM20L2 colon
SNB-75 CNS = tested on: SNB-75 CNS
SK-OV-3 ovarian = tested on: SK-OV-3 ovarian
HCT-116 colon = tested on: HCT-116 colon
TK-10 renal = tested on: TK-10 renal
MALME-3M melanoma = tested on: MALME-3M melanoma
SNB-19 CNS = tested on: SNB-19 CNS
SW-620 colon = tested on: SW-620 colon
COLO 205 colon = tested on: COLO 205 colon
OVCAR-4 ovarian = tested on: OVCAR-4 ovarian
UACC-62 melanoma = tested on: UACC-62 melanoma
HT29 colon = tested on: HT29 colon
OVCAR-3 ovarian = tested on: OVCAR-3 ovarian
HCC-2998 colon = tested on: HCC-2998 colon
LXFL 529 NSCLC = tested on: LXFL 529 NSCLC
HOP-92 NSCLC = tested on: HOP-92 NSCLC
IGROV1 ovarian = tested on: IGROV1 ovarian
NCI-H226 lung = tested on: NCI-H226 lung
EKVX NSCLC = tested on: EKVX NSCLC
U251 CNS = tested on: U251 CNS
DMS 273 small cell lung = tested on: DMS 273 small cell lung
RPMI-8226 leukemia = tested on: RPMI-8226 leukemia
SN12C renal = tested on: SN12C renal
SK-MEL-28 melanoma = tested on: SK-MEL-28 melanoma
SNB-78 CNS = tested on: SNB-78 CNS
OVCAR-5 ovarian = tested on: OVCAR-5 ovarian
NCI-H522 lung = tested on: NCI-H522 lung
SF-539 CNS = tested on: SF-539 CNS
SK-MEL-2 melanoma = tested on: SK-MEL-2 melanoma
NCI-H23 lung = tested on: NCI-H23 lung
DMS 114 small cell lung = tested on: DMS 114 small cell lung
A549 NSCLC = tested on: A549 NSCLC
SF-268 CNS = tested on: SF-268 CNS
SK-MEL-5 melanoma = tested on: SK-MEL-5 melanoma
RXF 393 renal = tested on: RXF 393 renal
OVCAR-8 ovarian = tested on: OVCAR-8 ovarian
CCRF-CEM leukemia = tested on: CCRF-CEM leukemia
DLD-1 colon = tested on: DLD-1 colon
NCI-H460 lung = tested on: NCI-H460 lung
ACHN renal = tested on: ACHN renal
CAKI-1 renal = tested on: CAKI-1 renal
HL-60(TB) leukemia = tested on: HL-60(TB) leukemia
SR leukemia = tested on: SR leukemia
M14 melanoma = tested on: M14 melanoma
HOP-62 NSCLC = tested on: HOP-62 NSCLC
A498 renal = tested on: A498 renal
LOX IMVI melanoma = tested on: LOX IMVI melanoma

Measured: TGI

CCOC(=O)c1cnc2oc(-c3ccc(OC)cc3)nn2c1=O
> 100 µM: UACC-257 melanoma | SF-295 CNS | M19-MEL melanoma | UO-31 renal | K-562 leukemia | KM12 colon | MOLT-4 leukemia | 786-0 renal | HCT-15 colon | KM20L2 colon | SNB-75 CNS | SK-OV-3 ovarian | HCT-116 colon | TK-10 renal | MALME-3M melanoma | SNB-19 CNS | SW-620 colon | COLO 205 colon | OVCAR-4 ovarian | UACC-62 melanoma | HT29 colon | OVCAR-3 ovarian | HCC-2998 colon | LXFL 529 NSCLC | HOP-92 NSCLC | IGROV1 ovarian | NCI-H226 lung | EKVX NSCLC | U251 CNS | DMS 273 small cell lung | RPMI-8226 leukemia | SN12C renal | SK-MEL-28 melanoma | SNB-78 CNS | OVCAR-5 ovarian | NCI-H522 lung | SF-539 CNS | SK-MEL-2 melanoma | NCI-H23 lung | DMS 114 small cell lung | A549 NSCLC | SF-268 CNS | SK-MEL-5 melanoma | RXF 393 renal | OVCAR-8 ovarian

COc1nc(C(=O)O)c(Cl)c(OC)c1Cl
> 100 µM: UACC-257 melanoma | CCRF-CEM leukemia | DLD-1 colon | SF-295 CNS | M19-MEL melanoma | NCI-H460 lung | UO-31 renal | KM12 colon | MOLT-4 leukemia | 786-0 renal | KM20L2 colon | SK-OV-3 ovarian | HCT-116 colon | TK-10 renal | MALME-3M melanoma | SNB-19 CNS | SW-620 colon | COLO 205 colon | OVCAR-4 ovarian | UACC-62 melanoma | HT29 colon | ACHN renal | OVCAR-3 ovarian | HCC-2998 colon | HOP-92 NSCLC | IGROV1 ovarian | CAKI-1 renal | EKVX NSCLC | RPMI-8226 leukemia | SN12C renal | SK-MEL-28 melanoma | OVCAR-5 ovarian | NCI-H522 lung | SF-539 CNS | SK-MEL-2 melanoma | NCI-H23 lung | DMS 114 small cell lung | HL-60(TB) leukemia | SR leukemia | A549 NSCLC | M14 melanoma | SF-268 CNS | HOP-62 NSCLC | SK-MEL-5 melanoma | RXF 393 renal | A498 renal | OVCAR-8 ovarian

c1ccc(C2=NOC3COc4ccccc4OCC23)cc1 (centres undefined)
> 100 µM: UACC-257 melanoma | CCRF-CEM leukemia | SF-295 CNS | NCI-H460 lung | UO-31 renal | K-562 leukemia | KM12 colon | MOLT-4 leukemia | 786-0 renal | HCT-15 colon | KM20L2 colon | SNB-75 CNS | SK-OV-3 ovarian | HCT-116 colon | TK-10 renal | MALME-3M melanoma | SNB-19 CNS | SW-620 colon | COLO 205 colon | OVCAR-4 ovarian | UACC-62 melanoma | HT29 colon | ACHN renal | OVCAR-3 ovarian | HCC-2998 colon | LXFL 529 NSCLC | CAKI-1 renal | EKVX NSCLC | U251 CNS | DMS 273 small cell lung | RPMI-8226 leukemia | SN12C renal | SK-MEL-28 melanoma | SNB-78 CNS | NCI-H522 lung | SF-539 CNS | SK-MEL-2 melanoma | NCI-H23 lung | DMS 114 small cell lung | HL-60(TB) leukemia | LOX IMVI melanoma | SR leukemia | A549 NSCLC | M14 melanoma | SF-268 CNS | HOP-62 NSCLC | SK-MEL-5 melanoma | RXF 393 renal | A498 renal | OVCAR-8 ovarian

CC1(SCC(N)C(=O)O)CC(=O)NC1=O (centres undefined)
> 100 µM: UACC-257 melanoma | CCRF-CEM leukemia | SF-295 CNS | M19-MEL melanoma | NCI-H460 lung | UO-31 renal | K-562 leukemia | KM12 colon | MOLT-4 leukemia | 786-0 renal | HCT-15 colon | KM20L2 colon | SNB-75 CNS | SK-OV-3 ovarian | HCT-116 colon | TK-10 renal | SNB-19 CNS | SW-620 colon | COLO 205 colon | OVCAR-4 ovarian | UACC-62 melanoma | HT29 colon | ACHN renal | OVCAR-3 ovarian | HCC-2998 colon | LXFL 529 NSCLC | HOP-92 NSCLC | IGROV1 ovarian | CAKI-1 renal | NCI-H226 lung | EKVX NSCLC | U251 CNS | DMS 273 small cell lung | RPMI-8226 leukemia | SN12C renal | SK-MEL-28 melanoma | SNB-78 CNS | NCI-H522 lung | SF-539 CNS | SK-MEL-2 melanoma | NCI-H23 lung | DMS 114 small cell lung | HL-60(TB) leukemia | LOX IMVI melanoma | SR leukemia | A549 NSCLC | SF-268 CNS | HOP-62 NSCLC | SK-MEL-5 melanoma | RXF 393 renal | A498 renal | OVCAR-8 ovarian
